Measurements: US8008505B2, “Indazole or 4,5,6,7-tetrahydro-indazole derivatives” (Hoffmann-La Roche Inc., priority 2008, dated 2011)

Each compound was assayed against T1, FXR ligand binding domain (Homo sapiens, UniProt Q96RI1) (assay: Radioligand binding assay (radioligand displacement, scintillation proximity)). Conditions: GST-FXR LBD fusion protein on SPA beads, radioligand 2,N-dicyclohexyl-2-[2-(2,4 dimethoxy-phenyl)-benzoimidazol-1-yl]-acetamide, RT 30 minutes.
T1 sequence (Q96RI1 1-486): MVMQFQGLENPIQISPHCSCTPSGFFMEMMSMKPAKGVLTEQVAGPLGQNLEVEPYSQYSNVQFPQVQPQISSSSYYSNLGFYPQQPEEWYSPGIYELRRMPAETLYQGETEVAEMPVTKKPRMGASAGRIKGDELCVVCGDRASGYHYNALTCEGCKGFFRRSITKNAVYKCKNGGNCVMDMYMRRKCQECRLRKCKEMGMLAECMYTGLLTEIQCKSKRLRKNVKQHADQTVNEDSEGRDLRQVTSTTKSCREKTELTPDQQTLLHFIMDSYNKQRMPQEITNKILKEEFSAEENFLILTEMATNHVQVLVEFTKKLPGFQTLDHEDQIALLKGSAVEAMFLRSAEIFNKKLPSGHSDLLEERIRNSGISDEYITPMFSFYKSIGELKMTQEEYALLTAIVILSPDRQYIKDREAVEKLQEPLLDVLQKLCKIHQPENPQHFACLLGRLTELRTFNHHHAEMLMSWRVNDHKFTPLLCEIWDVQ
Description: The following tests were carried out in order to determine the activity of the compounds of formula I. Background information on the binding assay can be found in: Nichols J S et al. “Development of a scintillation proximity assay for peroxisome proliferator-activated receptor gamma ligand binding domain”, (1998) Anal. Biochem. 257: 112-119.
Bacterial and mammalian expression vectors were constructed to produce glutathione-s-transferase (GST) and Gal4 DNA binding domain (GAL) proteins fused to the ligand binding domain (LBD) of human FXR (aa 193-473). To accomplish this, the portions of the sequences encoding the FXR LBD were amplified by polymerase chain reaction (PCR) from a full-length clone by PCR and then subcloned into the plasmid vectors. The final clone was verified by DNA sequence analysis.
The induction, expression, and subsequent purification of GST-LBD fusion protein was performed in E. coli strain BL21(pLysS) cells by standard methods (Current Protocols in Molecular Biology, Wiley Press, ed. Ausubel et al).
Radioligand Binding Assay
Binding of test substances to the FXR ligand binding domain was assessed in a radioligand displacement assay. The assay was performed in a buffer consisting of 50 mM Hepes, pH 7.4, 10 mM NaCl, 5 mM MgCl2. For each reaction well in a 96-well plate, 40 nM of GST-FXR LBD fusion protein was bound to 10 μg glutathione ytrium silicate SPA beads (Pharmacia Amersham) in a final volume of 50 μl by shaking. A radioligand (eg. 40 nM) of 2,N-dicyclohexyl-2-[2-(2,4 dimethoxy-phenyl)-benzoimidazol-1-yl]-acetamide) was added, and the reaction incubated at RT for 30 minutes in the presence of test compounds followed by scintillation proximity counting. All binding assays were performed in 96-well plates and the amount of bound ligand was measured on a Packard TopCount using OptiPlates (Packard). Dose response curves were performed within a range of concentration from 6×10^−9 M to 2.5×10^−5 M.

Row | SMILES | IC50
1 | O=C(O)c1ccc(OCC(c2c3ccccc3nn2-c2ccc(Cl)cc2)C2CCCCC2)nc1 (racemic) [Example 53, [rac]-6-{2-[2-(4-Chloro-phenyl)-2H-indazol-3-yl]-2-cyclohexyl-ethoxy}-nicotinic acid] | 730 nM
2 | O=C(O)C1(Oc2ccc(OCC(c3c4c(nn3-c3ccc(Cl)cc3)CCCC4)C3CCCCC3)cc2)CC1 (racemic) [Example 55, [rac]-1-(4-{2-[2-(4-Chloro-phenyl)-4,5,6,7-tetrahydro-2H-indazol-3-yl]-2-cyclohexyl-ethoxy}-phenoxy)-cyclopropanecarboxylic acid] | 42 nM
3 | O=C(O)C1(Oc2ccc(OC(c3c4cc(F)c(F)cc4nn3-c3ccc(Cl)cc3)C3CCCCC3)cc2)CC1 (racemic) [Example 56, [rac]-1-(4-{[2-(4-Chloro-phenyl)-5,6-difluoro-2H-indazol-3-yl]-cyclohexyl-methoxy}-phenoxy)-cyclopropanecarboxylic acid] | 170 nM
4 | O=C(Nc1ccc(-c2nnn[nH]2)cc1)C(c1c2c(nn1-c1ccc(Cl)cc1)CCCC2)C1CCCCC1 (racemic) [Example 57, [rac]-2-[2-(4-Chloro-phenyl)-4,5,6,7-tetrahydro-2H-indazol-3-yl]-2-cyclohexyl-N[4-(1H-tetrazol-5-yl)-phenyl]-acetamide] | 45 nM
5 | O=C(Nc1ccc(-c2nnn[nH]2)cc1F)C(c1c2c(nn1-c1ccc(Cl)cc1)CCCC2)C1CCCCC1 (racemic) [Example 58, [rac]-2-[2-(4-Chloro-phenyl)-4,5,6,7-tetrahydro-2H-indazol-3-yl]-2-cyclohexyl-N-[2-fluoro-4-(1H-tetrazol-5-yl)-phenyl]-acetamide] | 53 nM
6 | O=C(N[C@H]1CC[C@H](O)CC1)C(c1c2c(nn1-c1ccc(Cl)cc1)CCCC2)C1CCCCC1 (mixture of isomers) [Example 59, [rac]-2-[2-(4-Chloro-phenyl)-4,5,6,7-tetrahydro-2H-indazol-3-yl]-2-cyclohexyl-(trans)-N-(4-hydroxy-cyclohexyl)-acetamide] | 3040 nM
7 | O=C(O)CCc1ccc(NC(=O)C(c2c3c(nn2-c2ccc(Cl)cc2)CCCC3)C2CCCCC2)c(F)c1 (racemic) [Example 61, [rac]-3-(4-{2-[2-(4-Chloro-phenyl)-4,5,6,7-tetrahydro-2H-indazol-3-yl]-2-cyclohexyl-acetylamino}-3-fluoro-phenyl)-propionic acid] | 130 nM
8 | O=C(O)c1ccc(NC(=O)C(c2c3c(nn2-c2ccc(Cl)cc2)CCCC3)C2CCCCC2)c(Cl)c1 (racemic) [Example 62, [rac]-3-Chloro-4-{2-[2-(4-chloro-phenyl)-4,5,6,7-tetrahydro-2H-indazol-3-yl]-2-cyclohexyl-acetylamino}-benzoic acid] | 80 nM
9 | O=C(O)c1ccc(SCC(c2c3c(nn2-c2ccc(Cl)cc2)CCCC3)C2CCCCC2)cc1 (racemic) [Example 63, [rac]-4-{2-[2-(4-Chloro-phenyl)-4,5,6,7-tetrahydro-2H-indazol-3-yl]-2-cyclohexyl-ethylsulfanyl}-benzoic acid] | 200 nM
10 | O=C(O)c1ccc(OCC(c2c3c(nn2-c2ccc(Cl)cc2)CCCC3)C2CCCCC2)nc1 (racemic) [Example 64, [rac]-6-{2-[2-(4-Chloro-phenyl)-4,5,6,7-tetrahydro-2H-indazol-3-yl]-2-cyclohexyl-ethoxy}-nicotinic acid] | 250 nM
11 | Clc1ccc(-n2nc3c(c2C(CNc2ccc(-c4nnn[nH]4)cc2)C2CCCCC2)CCCC3)cc1 (racemic) [Example 65, [rac]-{2-[2-(4-Chloro-phenyl)-4,5,6,7-tetrahydro-2H-indazol-3-yl]-2-cyclohexyl-ethyl}-[4-(1H-tetrazol-5-yl)-phenyl]-amine] | 4 nM
12 | O=C(Nc1ccc(OC2(C(=O)O)CC2)cc1F)C(c1c2c(nn1-c1ccc(Cl)cc1)CCCC2)C1CCCCC1 (single isomer, unassigned; (+)) [Example 22, (+)-1-(4-{2-[2-(4-Chloro-phenyl)-4,5,6,7-tetrahydro-2H-indazol-3-yl]-2-cyclohexyl-acetylamino}-3-fluoro-phenoxy)-cyclopropanecarboxylic acid] | 2060 nM
